Data: patent publication US20230293639A1, “SYSTEMS, DEVICES, COMPOSITIONS, AND METHODS FOR TREATING DIABETES” (Abvance Therapeutics, Inc., priority 2020, published 2023)

Tested on: patients with Type 1 diabetes
Assay: Liquid meal challenge with IV insulin alone or IV insulin-glucagon co-infusion (4:1)
Assay type: in vivo, human
Details: for Requiring IV glucose rescue: subjects of eleven, rescue if plasma glucose dropped to 50 mg/dl
Experimental: Referring now to FIG. 12, a study protocol conducted by the applicant in human patients with Type 1 diabetes is illustrated, consistent with the present inventive concepts. […] The liquid meal challenge allows a clinically relevant assessment of plasma glucose rise and fall. […] By protocol, if plasma glucose dropped to 50 mg/dl, a variable glucose infusion was applied to maintain the glucose level at approximately 50 mg/dl, to avoid more serious hypoglycemia from occurring.
FIG. 13 illustrates the glucose excursion following the meal challenge for eleven patients (also referred to as “subjects” herein). […] The glucose excursion data is also presented below in Table 1, which compares peak plasma glucose levels and AUCs (area under curve) for the two treatment groups.

For insulin, the “subjects that had to be rescued” value (7 subjects whose glucose fell below the pre-meal value in the last 30 minutes) was 5, the “average glucose infusion rate” value (7 subjects whose glucose fell below the pre-meal value, last 30 minutes) was 5.9 ± 2.2 mg/kg/min and the “Time <70 mg/dl” value (eleven Type 1 diabetes patients) was 20 ± 7%. For the same substance, the “ΔPG 0-120AUC” value (eleven Type 1 diabetes patients, 0-120 min after liquid meal) was 8162 ± 1514 mg·min/dL, the “ΔPG 0-180AUC” value (eleven Type 1 diabetes patients, 0-180 min after liquid meal) was 10501 ± 3014 mg·min/dL and the “Peak PG” value (eleven Type 1 diabetes patients, after liquid meal) was 224 ± 18 mg/dL. For the same substance, the “Fasting PG” value (eleven Type 1 diabetes patients, before liquid meal) was 121 ± 5 mg/dL, the “sympathetic central nervous system response to hypoglycemia (venous plasma norepinephrine and epinephrine)” value (four patients) was “elevations of venous plasma norepinephrine and epinephrine” and the “average glucose infusion rate over the last 30 minutes” value (in all subjects (eleven-subject comparison)) was 3.8 ± 1.6 mg/kg/min. For the same substance, the PG nadir (lowest point during insulin-alone arm vs equivalent time point during insulin-glucagon arm) was 51 ± 4.0 mg/dL, the “average plasma glucose nadir” value (seven subjects with plasma glucose <80 mg/dl in insulin-alone arm, matching time point in insulin-glucagon arm) was 50 ± 4 mg/dL and the “Requiring IV glucose rescue” value (listed as Insulin-Alone) was 5/11. The “Requiring IV glucose rescue” value (listed as insulin-alone) was “Five of eleven” and the “patients rescued with glucose infusions” value (subset of four patients with more complete hormone analysis) was “Three out of the four”.
